Molecules are shown by their SMILES.

The target of this assay is T1, recombinant guanylate cyclase reporter cell line (Rattus norvegicus, UniProt P19686+P20595).
T1 construct: expressed in transfected cells
T1 sequence (P19686 1-690): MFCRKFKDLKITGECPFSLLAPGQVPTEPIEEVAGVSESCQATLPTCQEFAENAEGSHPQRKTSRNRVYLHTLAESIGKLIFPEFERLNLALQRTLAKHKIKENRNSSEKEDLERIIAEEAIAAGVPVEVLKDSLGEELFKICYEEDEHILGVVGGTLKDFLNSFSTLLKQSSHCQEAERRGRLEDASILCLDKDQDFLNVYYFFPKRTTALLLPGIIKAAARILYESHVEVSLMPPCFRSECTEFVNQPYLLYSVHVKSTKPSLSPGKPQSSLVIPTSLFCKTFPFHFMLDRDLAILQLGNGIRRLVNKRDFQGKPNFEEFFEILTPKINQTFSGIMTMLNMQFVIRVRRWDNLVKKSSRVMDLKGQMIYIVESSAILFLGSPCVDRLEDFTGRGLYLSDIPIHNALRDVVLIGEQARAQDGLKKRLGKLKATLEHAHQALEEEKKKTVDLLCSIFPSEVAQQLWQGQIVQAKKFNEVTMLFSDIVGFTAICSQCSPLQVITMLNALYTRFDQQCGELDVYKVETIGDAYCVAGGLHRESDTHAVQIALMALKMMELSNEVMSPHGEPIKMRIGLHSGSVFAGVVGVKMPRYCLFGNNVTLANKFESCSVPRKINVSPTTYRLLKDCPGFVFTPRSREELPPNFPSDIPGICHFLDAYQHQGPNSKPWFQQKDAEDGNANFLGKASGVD
T1 sequence (P20595 1-619): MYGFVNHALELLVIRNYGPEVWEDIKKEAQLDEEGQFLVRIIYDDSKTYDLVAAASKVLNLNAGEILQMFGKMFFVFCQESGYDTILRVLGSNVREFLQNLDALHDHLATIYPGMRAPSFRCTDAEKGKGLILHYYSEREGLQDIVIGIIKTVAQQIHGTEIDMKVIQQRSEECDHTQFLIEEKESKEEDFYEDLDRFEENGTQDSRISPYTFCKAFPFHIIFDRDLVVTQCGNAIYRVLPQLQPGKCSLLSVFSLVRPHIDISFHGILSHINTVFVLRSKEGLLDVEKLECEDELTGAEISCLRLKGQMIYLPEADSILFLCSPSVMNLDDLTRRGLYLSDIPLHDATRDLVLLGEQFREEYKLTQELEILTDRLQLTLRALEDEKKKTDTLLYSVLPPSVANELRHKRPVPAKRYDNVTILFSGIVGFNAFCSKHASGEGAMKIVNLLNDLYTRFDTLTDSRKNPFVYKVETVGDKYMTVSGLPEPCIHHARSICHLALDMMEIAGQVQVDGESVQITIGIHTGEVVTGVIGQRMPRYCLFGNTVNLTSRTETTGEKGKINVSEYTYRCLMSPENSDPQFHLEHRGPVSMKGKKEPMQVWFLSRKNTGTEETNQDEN
Kind of assay: Effect on a recombinant guanylate cyclase reporter cell line. The class given is cell-based. The settings on record: MEC = minimum effective concentration; in some cases mean values for individual determinations. In outline: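 Compounds tested in a recombinant guanylate cyclase reporter cell line per a published method. Potency expressed as minimum effective concentration (MEC), sometimes as mean of individual determinations.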
`Cc1cc(OCC2CC(F)(F)C2)c2nc(C)c(C(=O)Nc3c(C)n[nH]c3C(F)(F)F)n2c1` [Example 151, 8-[(3,3-Difluorocyclobutyl)methoxy]-2,6-dimethyl-N-[3-methyl-5-(trifluoromethyl)-1H-pyrazol-4-yl]imidazo[1,2-a]pyridine-3-carboxamide]: the MEC is 3.0 µM.

As to `Cc1nc2c(OCc3c(F)cccc3F)cccn2c1C(=O)Nc1ccccc1` [Example 11], the MEC stood at 0.3 µM. As to `Cc1nc2c(OCc3c(F)cccc3F)cccn2c1C(=O)Nc1cnn(CCOC(N)=O)c1` [Example 138, 2-{4-[({8-[(2,6-Difluorobenzyl)oxy]-2-methylimidazo[1,2-a]pyridin-3-yl}carbonyl)amino]-1H-pyrazol-1-yl}ethyl carbamate], the MEC stood at 10 µM. For `Cc1nc2c(OCc3c(F)cccc3F)cccn2c1C(=O)Nc1ccnc2cc(Cl)ccc12` [Example 77, N-(7-Chloroquinolin-4-yl)-8-[(2,6-difluorobenzyl)oxy]-2-methylimidazo[1,2-a]pyridine-3-carboxamide] the value was 0.1 µM. Next, `Cc1n[nH]c(C)c1NC(=O)c1c(C)nc2c(OCc3c(F)cccc3F)cc(N3CCCC3)cn12` [Example 50, 8-[(2,6-difluorobenzyl)oxy]-N-(3,5-dimethyl-1H-pyrazol-4-yl)-2-methyl-6-(pyrrolidin-1-yl)imidazo[1,2-a]pyridine-3-carboxamide]: 1.0 µM; `Cc1nc2c(OCc3c(F)cccc3F)cccn2c1C(=O)Nc1cccc(N2CCN(C)CC2)c1` [Example 99]: 3.0 µM. For `Cc1ccc2cccnc2c1NC(=O)c1c(C)nc2c(OCc3c(F)cccc3F)cccn12` [Example 65] the value was 1.0 µM; for `Cc1nc2c(OCc3c(F)cccc3F)cccn2c1C(=O)Nc1cnn(CCN2CCC(O)CC2)c1` [Example 130, 8-[(2,6-difluorobenzyl)oxy]-N-{1-[2-(4-hydroxypiperidin-1-yl)ethyl]-1H-pyrazol-4-yl}-2-methylimidazol[1,2-a] pyridine-3-carboxamide], 10 µM; for `COc1ccc(C)c(NC(=O)c2c(C)nc3c(OCc4c(F)cccc4F)cccn23)c1` [Example 16], 0.3 µM. As to `Cc1nc2c(OCc3c(F)cccc3F)cccn2c1C(=O)Nc1cnn(CCN2CCC(O)C2)c1` (racemic) [Example 131, rac-8-[(2,6-difluorobenzyl)oxy]-N-{1-[2-(3-hydroxypyrrolidin-1-yl)ethyl]-1H-pyrazol-4-yl}-2-methylimidazol[1,2-a] pyridine-3-carboxamide], the MEC was 10 µM. Next, `Cc1nc2c(OCc3c(F)cccc3F)cccn2c1C(=O)Nc1cc(C)n(C)n1` [Example 122, 8-[(2,6-difluorobenzyl)oxy]-N-(1,5-dimethyl-1H-pyrazol-3-yl)-2-methylimidazo[1,2-a] pyridine-3-carboxamide]: 3.0 µM; `Cc1cc(OCc2c(F)cccc2F)c2nc(C)c(C(=O)Nc3ccc(F)cc3CN)n2c1` [Example 113, N-[2-(Aminomethyl)-4-fluorophenyl]-8-[(2,6-difluorobenzyl)oxy]-2,6-dimethylimidazo[1,2-a]pyridine-3-carboxamide]: 0.3 µM. `Cc1nc2c(OCc3c(F)cccc3F)cccn2c1C(=O)Nc1cnn(CCO)c1` [Example 22, 8-[(2,6-Difluorobenzyl)oxy]-N-[1-(2-hydroxyethyl)-1H-pyrazol-4-yl]-2-methylimidazo[1,2-a]pyridine-3-carboxamide]: the MEC is 1.43 µM. For `Cc1nc2c(OCc3c(F)cccc3F)cc(Cl)cn2c1C(=O)Nc1cnn(CCF)c1` [Example 141, 6-chloro-8-[(2,6-difluorobenzyl)oxy]-N-[1-(2-fluoroethyl)-1H-pyrazol-4-yl]-2-methylimidazo[1,2-a]pyridine-3-carboxamide] the value was 1.0 µM. Regarding `Cc1nn(S(C)(=O)=O)c(C)c1NC(=O)c1c(C)nc2c(OCc3c(F)cccc3F)cccn12` [Example 154, 8-[(2,6-Difluorobenzyl)oxy]-N-[3,5-dimethyl-1-(methylsulphonyl)-1H-pyrazol-4-yl]-2-methylimidazo[1,2-a]pyridine-3-carboxamide], the MEC was 1.0 µM.

On to `Cc1nc2c(OCc3c(F)cccc3F)cccn2c1C(=O)Nc1cnn(CC(F)(F)F)c1` [Example 30, 8-[(2,6-difluorobenzyl)oxy]-2-methyl-N-[1-(2,2,2-trifluoroethyl)-1H-pyrazol-4-yl]imidazo[1,2-a]pyridine-3-carboxamide], for which the MEC came out at 0.3 µM. As for `Cc1nc2c(OCc3c(F)cccc3F)cccn2c1C(=O)Nc1nn(C)c2ccc(C(F)(F)F)cc12` [Example 103, 8-[(2,6-Difluorobenzyl)oxy]-2-methyl-N-[1-methyl-5-(trifluoromethyl)-1H-indazol-3-yl]imidazo[1,2-a]pyridine-3-carboxamide], the MEC stood at 1.0 µM. Consider `Cc1nc2c(OCc3c(F)cccc3F)cccn2c1C(=O)Nc1cnn(C(C)C)c1` [Example 27, 8-[(2,6-difluorobenzyl)oxy]-N-(1-isopropyl-1H-pyrazol-4-yl)-2-methylimidazo[1,2-a]pyridine-3-carboxamide], for which the MEC turned out to be 0.3 µM.

As for `Cc1nc2c(OCc3c(F)cccc3F)cccn2c1C(=O)Nc1cnn(CCN2CCC(F)(F)CC2)c1` [Example 127, 8-[(2,6-Difluorobenzyl)oxy]-N-{1-[2-(4,4-difluoropiperidin-1-yl)ethyl]-1H-pyrazol-4-yl}-2-methylimidazo[1,2-a]pyridine-3-carboxamide], the MEC is 1.0 µM. For `Cc1nc2c(OCc3c(F)cccc3F)cccn2c1C(=O)Nc1ccccc1F` [Example 10] the value was 0.3 µM; for `Cc1cc(OCCC(C(F)(F)F)C(F)(F)F)c2nc(C)c(C(=O)Nc3c(C)n[nH]c3C(F)(F)F)n2c1` [Example 149, 2,6-dimethyl-N-[3-methyl-5-(trifluoromethyl)-1H-pyrazol-4-yl]-8-[4,4,4-trifluoro-3-(trifluoromethyl)butoxy]imidazo[1,2-a]pyridine-3-carboxamide], 2.0 µM. Next, `Cc1nc2c(OCc3c(F)cccc3F)cccn2c1C(=O)Nc1ccc(N2CCNCC2)c(C(F)(F)F)c1` [Example 107, 8-[(2,6-difluorobenzyl)oxy]-2-methyl-N-[4-(piperazin-1-yl)-3-(trifluoromethyl)phenyl]imidazo[1,2-a]pyridine-3-carboxamide]: 1.0 µM; `Cc1nn(CC(F)(F)F)c(C)c1NC(=O)c1c(C)nc2c(OCc3c(F)cccc3F)cc(Cl)cn12` [Example 43, 6-chloro-8-[(2,6-difluorobenzyl)oxy]-N-[3,5-dimethyl-1-(2,2,2-trifluoroethyl)-1H-pyrazol-4-yl]-2-methylimidazo[1,2-a]pyridine-3-carboxamide]: 0.03 µM. For the molecule `Cc1nc2c(OCc3c(F)cccc3F)cccn2c1C(=O)Nc1ccc(N2CCNCC2)c(F)c1` [Example 106, 8-[(2,6-difluorobenzyl)oxy]-N-[3-fluoro-4-(piperazin-1-yl)phenyl]-2-methylimidazo[1,2-a]pyridine-3-carboxamide], the MEC stood at 1.0 µM. Next, `Cc1nc2c(OCc3c(F)cccc3F)cccn2c1C(=O)Nc1cnn(CCF)c1` [Example 140, 8-[(2,6-Difluorobenzyl)oxy]-N-[1-(2-fluoroethyl)-1H-pyrazol-4-yl]-2-methylimidazo[1,2-a]pyridine-3-carboxamide]: 1.0 µM; `Cc1n[nH]c(C)c1NC(=O)c1c(C)nc2c(OCc3c(F)cccc3F)cccn12` [Example 29, 8-[(2,6-difluorobenzyl)oxy]-N-(3,5-dimethyl-1H-pyrazol-4-yl)-2-methylimidazo[1,2-a]pyridine-3-carboxamide]: 0.53 µM. Regarding `Cc1cccc(NC(=O)c2c(C)nc3c(OCc4c(F)cccc4F)cccn23)c1C` [Example 12], the MEC was found to be 0.3 µM.

`Cc1nn(CCO)c(C)c1NC(=O)c1c(C)nc2c(OCc3c(F)cccc3F)cc(Cl)cn12` [Example 42, 6-chloro-8-[(2,6-difluorobenzyl)oxy]-N-[1-(2-hydroxyethyl)-3,5-dimethyl-1H-pyrazol-4-yl]-2-methylimidazo[1,2-a]pyridine-3-carboxamide]: the MEC was determined as 0.1 µM.

For the origin of these results see patent US20160362408A1 (Bayer Pharma Aktiengesellschaft, priority 2013, published 2016).
